Measurements reported in patent publication US6274715A, “Tricyclic erythromycin derivatives” (priority 1997, dated 2001).
Converted amounts (≈) assume the structure as drawn.

Legend:
Assay type in all cases: cell-based
[1] = tested on: ESCHERICHIA COLI KNK 437; details: E. coli KNK 437; BHI agar; unit assumed
[2] = tested on: ACINETOBACTER CALCOACETICUS CMX 669; assay: In vitro antibacterial activity, MIC, BHI agar dilution; details: A. calcoaceticus CMX 669, unit assumed
[3] = tested on: PSEUDOMONAS AERUGINOSA BMH10; assay: as above; details: P. aeruginosa BMH10, unit assumed
[4] = tested on: PROVIDENCIA STUARTII CMX 640; details: P. stuartii CMX 640; BHI agar; unit assumed
[5] = tested on: CANDIDA ALBICANS CCH 442; assay: In vitro antibacterial activity, MIC, BHI agar dilution; details: C. albicans CCH 442, unit assumed
[6] = tested on: ENTEROBACTER AEROGENES ATCC 13048; assay: as above; details: E. aerogenes ATCC 13048, unit assumed
[7] = tested on: PSEUDOMONAS AERUGINOSA K799/WT; assay: as above; details: P. aeruginosa K799/WT, unit assumed
[8] = tested on: STREPTOCOCCUS PYOGENES 930; assay: as above; details: S. pyogenes 930, unit assumed
[9] = tested on: ESCHERICHIA COLI JUHL; details: E. coli JUHL; BHI agar; unit assumed
[10] = tested on: STAPHYLOCOCCUS AUREUS CMX 642A; assay: In vitro antibacterial activity, MIC, BHI agar dilution; details: S. aureus CMX 642A, unit assumed
[11] = tested on: STAPHYLOCOCCUS AUREUS ATCC 6538P; assay: as above; details: S. aureus ATCC 6538P, 35-37° C., 20 to 24 hours, unit assumed
[12] = tested on: PSEUDOMONAS AERUGINOSA DPHD-2862; assay: as above; details: P. aeruginosa DPHD-2862, unit assumed
[13] = tested on: PSEUDOMONAS AERUGINOSA 5007; assay: as above; details: P. aeruginosa 5007, unit assumed
[14] = tested on: ESCHERICHIA COLI DC-2; assay: as above; details: E. coli DC-2, unit assumed
[15] = tested on: STAPHYLOCOCCUS EPIDERMIDIS 3519; details: S. epidermidis 3519; BHI agar; unit assumed
[16] = tested on: ESCHERICHIA COLI H560; assay: In vitro antibacterial activity, MIC, BHI agar dilution; details: E. coli H560, unit assumed
[17] = tested on: STAPHYLOCOCCUS AUREUS A-5278; assay: as above; details: S. aureus A-5278, unit assumed
[18] = tested on: PSEUDOMONAS AERUGINOSA DPHD-5263; assay: as above; details: P. aeruginosa DPHD-5263, unit assumed
[19] = tested on: PSEUDOMONAS CEPACIA 296I; assay: as above; details: P. cepacia 296I, unit assumed
[20] = tested on: STREPTOCOCCUS PYOGENES PIU 2548; assay: as above; details: S. pyogenes PIU 2548, unit assumed
[21] = tested on: STREPTOCOCCUS BOVIS A-5169; assay: as above; details: S. bovis A-5169, unit assumed
[22] = tested on: STAPHYLOCOCCUS AUREUS A5177; assay: as above; details: S. aureus A5177, unit assumed
[23] = tested on: EN[…] ATCC 8043; assay: as above; details: E. faecium ATCC 8043, unit assumed
How it was run: (§1)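 MIC was read visually as the lowest drug level with no growth, a slight haze or sparsely isolated colonies relative to a compound-free growth control. Organisms were spotted at 1:100 dilution (1:10 for slow-growing strains) onto Brain Heart Infusion agar containing serial compound dilutions and incubated 20 to 24 hours at 35-37° C.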

[24] = tested on: M[…] ATCC 9341; assay: as above; details: M. luteus ATCC 9341, unit assumed
How it was run: as §1

[25] = tested on: STR[…] 508; assay: as above; details: S. agalactiae CMX 508, unit assumed
How it was run: as §1

[26] = tested on: M[…] ATCC 4698; assay: as above; details: M. luteus ATCC 4698, unit assumed
How it was run: as §1

[27] = tested on: PSEUDOMONAS AERUGINOSA K799/61; assay: as above; details: P. aeruginosa K799/61, unit assumed
[28] = tested on: KLEBSIELLA PNEUMONIAE ATCC 8045; assay: as above; details: K. pneumoniae ATCC 8045, unit assumed
[29] = tested on: STAPHYLOCOCCUS AUREUS NCTC10649M; assay: as above; details: S. aureus NCTC10649M, unit assumed
[30] = tested on: STAPHYLOCOCCUS AUREUS 1775; assay: as above; details: S. aureus 1775, unit assumed
[31] = tested on: MYCOBACTERIUM SMEGMATIS ATCC 114; assay: as above; details: M. smegmatis ATCC 114, unit assumed
[32] = tested on: STAPHYLOCOCCUS AUREUS CMX 553; assay: as above; details: S. aureus CMX 553, unit assumed
[33] = tested on: ESCHERICHIA COLI SS; assay: as above; details: E. coli SS, unit assumed
[34] = tested on: STREPTOCOCCUS PYOGENES EES61; assay: as above; details: S. pyogenes EES61, unit assumed

C#CCN1CC2N=C3[C@H](C)C[C@@](C)(OC)[C@H](O[C@@H]4O[C@H](C)C[C@H](N(C)C)[C@H]4O)[C@@H](C)C(=O)[C@@H](C)C(=O)O[C@H](CC)[C@@]4(C)OC(=O)N(C2C1)[C@@H]4[C@H]3C (some centres unmarked) [Example 117]
MIC [1]: > 100 µg/mL | MIC [2]: > 100 µg/mL | MIC [3]: > 100 µg/mL | MIC [4]: > 100 µg/mL | MIC [5]: > 100 µg/mL | MIC [6]: > 100 µg/mL | MIC [7]: > 100 µg/mL | MIC [8]: > 100 µg/mL | MIC [9]: > 100 µg/mL | MIC [10]: 0.78 µg/mL (≈ 1.09 µM) | MIC [11]: 0.78 µg/mL (≈ 1.09 µM) | MIC [12]: > 100 µg/mL | MIC [13]: > 100 µg/mL | MIC [14]: > 100 µg/mL | MIC [15]: 1.56 µg/mL (≈ 2.18 µM) | MIC [16]: 50 µg/mL (≈ 69.7 µM) | MIC [17]: > 100 µg/mL | MIC [18]: > 100 µg/mL | MIC [19]: > 100 µg/mL | MIC [20]: 0.78 µg/mL (≈ 1.09 µM) | MIC [21]: 0.05 µg/mL (≈ 0.0697 µM) | MIC [22]: 0.78 µg/mL (≈ 1.09 µM) | MIC [23]: 0.2 µg/mL (≈ 0.279 µM) | MIC [24]: 0.2 µg/mL (≈ 0.279 µM) | MIC [25]: 0.05 µg/mL (≈ 0.0697 µM) | MIC [26]: 0.39 µg/mL (≈ 0.544 µM) | MIC [27]: 3.1 µg/mL (≈ 4.32 µM) | MIC [28]: > 100 µg/mL | MIC [29]: 0.78 µg/mL (≈ 1.09 µM) | MIC [30]: > 100 µg/mL | MIC [31]: 3.1 µg/mL (≈ 4.32 µM) | MIC [32]: 0.78 µg/mL (≈ 1.09 µM)

CC[C@H]1OC(=O)[C@H](C)C(=O)[C@H](C)[C@@H](O[C@@H]2O[C@H](C)C[C@H](N(C)C)[C@H]2O)[C@](C)(OC)C[C@@H](C)C2=N[C@H](COCc3ccccn3)CN3C(=O)O[C@@]1(C)[C@H]3[C@H]2C [Example 81]
MIC [33]: 1.56 µg/mL (≈ 2.06 µM) | MIC [1]: > 100 µg/mL | MIC [2]: 100 µg/mL (≈ 132 µM) | MIC [3]: > 100 µg/mL | MIC [4]: > 100 µg/mL | MIC [5]: > 100 µg/mL | MIC [6]: > 100 µg/mL | MIC [7]: > 100 µg/mL | MIC [8]: > 100 µg/mL | MIC [9]: > 100 µg/mL | MIC [10]: 0.39 µg/mL (≈ 0.514 µM) | MIC [11]: 0.39 µg/mL (≈ 0.514 µM) | MIC [12]: > 100 µg/mL | MIC [13]: > 100 µg/mL | MIC [14]: > 100 µg/mL | MIC [15]: 0.39 µg/mL (≈ 0.514 µM) | MIC [16]: 50 µg/mL (≈ 65.9 µM) | MIC [17]: > 100 µg/mL | MIC [18]: > 100 µg/mL | MIC [19]: > 100 µg/mL | MIC [20]: 0.39 µg/mL (≈ 0.514 µM) | MIC [21]: 0.05 µg/mL (≈ 0.0659 µM) | MIC [22]: 0.39 µg/mL (≈ 0.514 µM) | MIC [23]: 0.05 µg/mL (≈ 0.0659 µM) | MIC [24]: 0.05 µg/mL (≈ 0.0659 µM) | MIC [25]: 0.05 µg/mL (≈ 0.0659 µM) | MIC [26]: 0.39 µg/mL (≈ 0.514 µM) | MIC [27]: 3.1 µg/mL (≈ 4.08 µM) | MIC [29]: 0.39 µg/mL (≈ 0.514 µM) | MIC [30]: > 100 µg/mL | MIC [31]: 3.1 µg/mL (≈ 4.08 µM) | MIC [34]: 0.05 µg/mL (≈ 0.0659 µM) | MIC [32]: 0.39 µg/mL (≈ 0.514 µM)

CC[C@H]1OC(=O)[C@H](C)C(=O)[C@H](C)[C@@H](O[C@@H]2O[C@H](C)C[C@H](N(C)C)[C@H]2O)[C@](C)(OC)C[C@@H](C)C2=N[C@H](COCc3cccnc3)CN3C(=O)O[C@@]1(C)[C@H]3[C@H]2C [Example 82]
MIC [33]: 0.78 µg/mL (≈ 1.03 µM) | MIC [1]: > 100 µg/mL | MIC [2]: > 100 µg/mL | MIC [3]: > 100 µg/mL | MIC [4]: > 100 µg/mL | MIC [5]: > 100 µg/mL | MIC [6]: > 100 µg/mL | MIC [7]: > 100 µg/mL | MIC [8]: > 100 µg/mL | MIC [9]: > 100 µg/mL | MIC [10]: 0.39 µg/mL (≈ 0.514 µM) | MIC [11]: 0.39 µg/mL (≈ 0.514 µM) | MIC [12]: > 100 µg/mL | MIC [13]: > 100 µg/mL | MIC [14]: > 100 µg/mL | MIC [15]: 0.39 µg/mL (≈ 0.514 µM) | MIC [16]: > 100 µg/mL | MIC [17]: > 100 µg/mL | MIC [18]: > 100 µg/mL | MIC [19]: > 100 µg/mL | MIC [20]: 0.39 µg/mL (≈ 0.514 µM) | MIC [21]: 0.05 µg/mL (≈ 0.0659 µM) | MIC [22]: 0.39 µg/mL (≈ 0.514 µM) | MIC [23]: 0.05 µg/mL (≈ 0.0659 µM) | MIC [24]: 0.05 µg/mL (≈ 0.0659 µM) | MIC [25]: 0.05 µg/mL (≈ 0.0659 µM) | MIC [26]: 0.39 µg/mL (≈ 0.514 µM) | MIC [27]: 3.1 µg/mL (≈ 4.08 µM) | MIC [29]: 0.39 µg/mL (≈ 0.514 µM) | MIC [30]: > 100 µg/mL | MIC [31]: 3.1 µg/mL (≈ 4.08 µM) | MIC [34]: 0.05 µg/mL (≈ 0.0659 µM) | MIC [32]: 0.39 µg/mL (≈ 0.514 µM)
